From ChEMBL document CHEMBL1146397, “Isolation and structure determination of sulfonoquinovosyl dipalmitoyl glyceride, a P-selectin receptor inhibitor from the alga Dictyochloris fragrans” (J Nat Prod, 1997)
pIC50: −log10 of the molar value. Active and inactive are the calls of the source. The rule behind the calls is not given here.

Experiments:
Type in all cases: cell-based
[1] = molecular target: T1, P-selectin (Homo sapiens) (UniProt P16109); assay: (§1) Displacement of immobilized sulfatide from P-selectin transfected in african green monkey COS cells by IgG-based competitive ELISA
T1 sequence (whole entry): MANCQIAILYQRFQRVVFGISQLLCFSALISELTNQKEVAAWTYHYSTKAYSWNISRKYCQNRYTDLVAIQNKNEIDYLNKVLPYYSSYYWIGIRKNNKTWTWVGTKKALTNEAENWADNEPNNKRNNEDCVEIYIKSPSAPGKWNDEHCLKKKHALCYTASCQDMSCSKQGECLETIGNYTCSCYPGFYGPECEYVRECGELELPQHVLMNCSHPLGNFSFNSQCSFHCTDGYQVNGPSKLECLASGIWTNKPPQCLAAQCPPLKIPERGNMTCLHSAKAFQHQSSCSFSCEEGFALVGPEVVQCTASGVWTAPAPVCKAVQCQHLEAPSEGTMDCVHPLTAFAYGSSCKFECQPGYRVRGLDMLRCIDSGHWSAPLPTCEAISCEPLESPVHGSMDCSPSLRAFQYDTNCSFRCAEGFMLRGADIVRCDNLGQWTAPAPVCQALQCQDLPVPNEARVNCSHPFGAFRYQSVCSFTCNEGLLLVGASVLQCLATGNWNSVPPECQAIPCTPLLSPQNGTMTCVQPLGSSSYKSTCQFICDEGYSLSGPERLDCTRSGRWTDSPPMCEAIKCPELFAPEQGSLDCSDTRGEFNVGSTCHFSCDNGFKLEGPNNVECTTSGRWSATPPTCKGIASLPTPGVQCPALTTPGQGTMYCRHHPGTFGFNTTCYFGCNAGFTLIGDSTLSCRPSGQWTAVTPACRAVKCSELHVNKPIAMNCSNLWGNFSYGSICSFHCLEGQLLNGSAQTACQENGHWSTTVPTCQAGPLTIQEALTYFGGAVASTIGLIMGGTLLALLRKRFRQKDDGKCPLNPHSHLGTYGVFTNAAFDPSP

[2] = molecular target: T2, P-selectin (Homo sapiens, UniProt P16109); assay: as §1
T2 sequence (P16109 whole entry): T1 sequence (whole entry)

[3] = molecular target: T1, P-selectin (Homo sapiens); assay: Inhibition of human P-selectin-dependent adhesion of activated platelets to HL60 cells after 30 mins by flow cytometry; settings: HL-60
[4] = Inhibition of human P-selectin receptor globulin adhesion to HL60 cells; settings: HL-60

For `CCCCCCCCCCCCCC(=O)OCC(COP(=O)(O)OCCN)OC(=O)CCCCCCCCCCCCC` (stereo unspecified), the Activity [1] was “inactive”.

Work on `CCCCC/C=C/C/C=C/CCCCCCCC(=O)OC(COC(=O)CCCCCCCCCCCCCCC)COP(=O)(O)OCC(O)CO` (stereo unspecified) [PHOSPHATIDYL GLYCEROL] yielded a pIC50 [2] of 6.00 and an inhibition [3] of 0%.

Work on `CCCCCCCCCCCCCCCC(=O)OCC(CO[C@H]1O[C@H](CS(=O)(=O)O)[C@@H](O)[C@H](O)[C@H]1O)OC(=O)CCCCCCCCCCCCCCC` (stereo partly specified) [SULFONOQUINOVOSYL DIPALMITOYL GLYCERIDE] yielded a pIC50 [2] of 5.30, an inhibition [3] of 24% and a pIC50 [4] of 4.40.
